From PMC5399635 (The Journal of Pharmacology and Experimental Therapeutics, 2017)
Values joined by “and” are separate entries in the source; they are usually repeats but may differ in a detail not shown here. Identical values can stand only once. “Also recorded” adds a separate entry of the source. Like-named read-outs stand apart in the source and are kept apart here.

What was measured:
[1] = set-up: method as in Bui et al., 2016; conditions: quinidine; ref Bui et al., 2016; cited from earlier work
κ-opioid receptors = biological target: T1, κ-opioid receptors (Oryctolagus cuniculus, UniProt G1SJ19); assay: Isolated field-stimulated rabbit vas deferens assay; conditions: concentrations up to 10 µM
T1 construct: isolated tissue preparation from the rabbit vas deferens; from tissue; host or cells: rabbit vas deferens
Experimental: (§1) These were single experiments conducted across a range of 12 half-log concentrations, from […], with 1 replicate per concentration; experimental conditions were as described for [^35S]GTPγS binding experiments with human recombinant µ-opioid receptors. Functional activity at κ-opioid receptors was also determined in an isolated tissue preparation from the rabbit vas deferens, using methods detailed previously ([Oka et al., 1981]).

[2] = test system: opioid-induced constipation; set-up: method as in Chey et al., 2014; conditions: two trials, ref Chey et al., 2014, cited from earlier work
rat κ-opioid receptor = biological target: T2, rat κ-opioid receptor (Rattus norvegicus, UniProt P34975); assay: Radioligand binding, κ-opioid receptor ([3H]U69593)
T2 construct: expressed in transfected cells; host or cells: CHO cells
Experimental: Competitive inhibition studies were performed on cloned opioid receptors expressed in membranes of Chinese hamster ovary (CHO) cells and conducted in triplicate (n = 3 independent experiments).
Radioligand binding assays were performed to evaluate the ability of these agents to inhibit specific radioligand binding to cloned opioid receptor subtypes. Half-maximal inhibitory concentration (IC50), equilibrium dissociation constant for the inhibitor (Ki), and negative log of the equilibrium dissociation constant for the inhibitor (pKi) values were obtained. The receptor binding methods used for µ ([Zhang et al., 1998])-, δ ([Simonin et al., 1994])-, and κ ([Meng et al., 1993])-opioid receptors have been described previously, with the exception that 100 mM NaCl was added to the incubation buffer in the µ-opioid receptor binding assay. All assays were conducted in 200-µl volume. All assay incubations were terminated by filtration, and bound radioligand was quantitated by liquid scintillation spectrometry. The IC50 values were determined by nonlinear regression analysis of the competition curves generated with the mean of duplicate values using Hill equation curve fitting. The inhibition constants (Ki) were calculated using the Cheng-Prusoff equation. The pKi results from three independent experiments were analyzed for significant differences by one-way analysis of variance (ANOVA) followed by Bonferroni multiple comparison test.

[3] = test system: morphine-induced inhibition of gastrointestinal transit; assay: Gastrointestinal transit model (charcoal meal), antagonism of morphine
human κ-opioid receptor = biological target: T3, human κ-opioid receptor (Homo sapiens, UniProt P41145); assay: [35S]GTPγS functional assay, κ-opioid receptor (HEK-293 membranes); assay type: biochemical
T3 construct: expressed in transfected cells; host or cells: HEK-293 cells
Experimental: as §1

human δ-opioid receptor = biological target: T4, human δ-opioid receptor (Homo sapiens, UniProt P41143); assay: [35S]GTPγS functional assay, δ-opioid receptor (CHO membranes); assay type: biochemical; conditions: agonist mode, relative to DPDPE 10 µM; single experiment
T4 construct: expressed in transfected cells; host or cells: CHO cells

[4] = test system: morphine-induced antinociception; assay: Hot plate model of nociception, antagonism of morphine; conditions: Rattus norvegicus, po, read-out: ED50, antagonism of morphine analgesia

T3 sequence (P41145 whole entry): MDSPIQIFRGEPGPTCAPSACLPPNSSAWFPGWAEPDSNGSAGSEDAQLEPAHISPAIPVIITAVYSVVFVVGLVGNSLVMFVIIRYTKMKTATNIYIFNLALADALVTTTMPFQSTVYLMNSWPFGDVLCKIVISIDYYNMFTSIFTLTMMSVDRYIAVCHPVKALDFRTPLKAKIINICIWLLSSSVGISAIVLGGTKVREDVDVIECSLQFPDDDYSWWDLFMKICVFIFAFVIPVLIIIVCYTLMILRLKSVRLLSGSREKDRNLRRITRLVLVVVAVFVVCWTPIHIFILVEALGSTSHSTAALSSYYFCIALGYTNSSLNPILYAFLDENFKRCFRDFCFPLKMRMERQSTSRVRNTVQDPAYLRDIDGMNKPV
T2 sequence (P34975 whole entry): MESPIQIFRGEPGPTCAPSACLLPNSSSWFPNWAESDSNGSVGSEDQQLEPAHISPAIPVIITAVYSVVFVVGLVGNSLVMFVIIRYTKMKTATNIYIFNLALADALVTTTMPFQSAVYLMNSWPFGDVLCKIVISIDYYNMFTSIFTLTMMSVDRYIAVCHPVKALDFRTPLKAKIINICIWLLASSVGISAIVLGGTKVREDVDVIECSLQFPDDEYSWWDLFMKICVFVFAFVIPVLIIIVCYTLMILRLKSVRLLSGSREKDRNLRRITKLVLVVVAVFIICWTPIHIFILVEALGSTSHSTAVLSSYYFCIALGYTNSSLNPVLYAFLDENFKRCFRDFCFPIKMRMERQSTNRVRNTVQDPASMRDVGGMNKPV
T1 sequence (G1SJ19 1-383): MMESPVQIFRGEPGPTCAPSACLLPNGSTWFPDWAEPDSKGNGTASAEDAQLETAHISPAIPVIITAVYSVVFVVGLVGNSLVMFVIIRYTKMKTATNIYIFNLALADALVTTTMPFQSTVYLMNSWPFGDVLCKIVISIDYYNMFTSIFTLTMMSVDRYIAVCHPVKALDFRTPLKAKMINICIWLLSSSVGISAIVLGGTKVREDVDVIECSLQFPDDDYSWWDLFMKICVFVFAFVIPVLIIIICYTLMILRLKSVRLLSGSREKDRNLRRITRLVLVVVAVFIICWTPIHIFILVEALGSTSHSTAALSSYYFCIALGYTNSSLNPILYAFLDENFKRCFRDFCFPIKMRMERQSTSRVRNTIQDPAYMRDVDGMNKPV
T4 sequence (P41143 whole entry): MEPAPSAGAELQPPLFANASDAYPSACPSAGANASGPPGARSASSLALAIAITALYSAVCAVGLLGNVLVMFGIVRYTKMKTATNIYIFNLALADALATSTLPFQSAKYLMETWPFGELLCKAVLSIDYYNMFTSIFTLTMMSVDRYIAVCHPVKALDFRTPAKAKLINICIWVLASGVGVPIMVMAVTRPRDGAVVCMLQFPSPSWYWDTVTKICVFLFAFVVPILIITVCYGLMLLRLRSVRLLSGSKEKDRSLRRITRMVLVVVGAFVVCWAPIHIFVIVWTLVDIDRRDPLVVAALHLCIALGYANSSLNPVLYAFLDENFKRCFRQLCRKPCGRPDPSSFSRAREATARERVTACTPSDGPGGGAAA

For `C=CCN1CC[C@]23c4c5ccc(O)c4O[C@H]2[C@@H](OCCOCCOCCOCCOCCOCCOCCOC)CC[C@@]3(O)[C@H]1C5` [Naloxegol, naloxegol], the “CNS distribution when coadministered with a strong P-gp inhibitor” value [1] is listed as “unaffected”, the “agonist activity at κ-opioid receptors” value (κ-opioid receptors) is listed as “no agonist activity” and the “12-week response rate versus placebo” value ([2]; 12.5 mg once daily) is listed as “significantly higher than with placebo in only one trial”. For the same molecule, the “12-week response rate versus placebo” value ([2]; 25 mg once daily) was “Significantly more patients responded”, the Ki (rat κ-opioid receptor; cloned rat κ-opioid receptors, read-out: geometric mean Ki) was 8.65 nM and 8.6 nM and the Ki (rat κ-opioid receptor; no measure named, read-out: κ-opioid receptor value expressed as plasma concentration (Fig. 5) (converted)) was 8.59 nM. For the same molecule, the “oral dose that completely reversed the effect of morphine” value ([3]; GI transit assay, rat) was 90 mg/kg, the ED50 ([3]; Rattus norvegicus, read-out: ED50, antagonism of morphine in GI transit) was 23.1 mg/kg and the “times less potent than naloxone” value ([3]; comparison of ED50 values) was “approximately 33 fold”. The “separation in PNS versus CNS effect” value ([3]; rat, GI transit versus hot plate) was “twofold”, the IC50 (human κ-opioid receptor; U69593 100 nM, read-out: IC50 (inhibition of response to U69593)) was 37 nM and the inhibition at 100 µM (human κ-opioid receptor; at 100 µM, read-out: maximal inhibition of response to U69593) was 62%. For the same molecule, the EC50 (human κ-opioid receptor; read-out: EC50 (agonism)) was 47 nM, the Emax (human κ-opioid receptor; read-out: maximal effect, agonism relative to U69593) was 39% and the agonism (human δ-opioid receptor) was “no agonism”. For the same molecule, the ED50 [4] was 55.4 mg/kg and the “efflux transporter substrate status” value (Caco2 cells) was “substrate for at least one apically directed efflux transporter, likely the P-gp transporter; also recorded: substrate for the P-glycoprotein transporter”.
